The results in this text go back to US9012487B2, “Bicyclo-pyrazoles active as kinase inhibitors” (Nerviano Medical Sciences S.r.l., priority 2006, dated 2015).

Assay [1] concerns the target T1, IGF1R (Homo sapiens, UniProt P08069).
T1 construct: endogenous in cells; host or cells: MCF-7 (ATCC #HTB-22)
Kind of assay: Western blot analysis of receptor phosphorylation following stimulation with IGF-1 in MCF-7 human breast cancer cells. Type of assay: cell-based. Particulars: MCF-7 starved cells stimulated with 10 nM IGF1; increasing concentrations of compound; Western blot band of pIGF1R (FIG. 2). The procedure: Treatment of starved MCF-7 cells with 10 nM IGF1 induced receptor auto-phosphorylation as shown by the appearance of a more intense band of phosphorylated IGF1R (pIGF1R).
Western Blot Analysis of Receptor Phosphorylation Following Stimulation with IGF-1 in MCF-7 Human Breast Cancer Cells
MCF-7 cells (ATCC #HTB-22) were seeded in 12-well tissue culture plates at 2×10^5 cells/well in E-MEM medium (MEM+Earle's BSS+2 mM glutamine+0.1 mM non-essential amino acids)+10% FCS, and incubated overnight at 37° C., 5% CO2, 100% relative humidity. Cells were then starved by replacing E-MEM+10% FCS with E-MEM+0.1% BSA, and incubating overnight. After this incubation, wells were treated with desired concentrations of compound for 1 hour at 37° C., and were then stimulated with 10 nM recombinant human IGF-1 (Invitrogen, Carlsbad, Calif., USA) for 10 minutes at 37° C. Cells were then washed with PBS and lysed in 100 microL/well cell lysis buffer (M-PER Mammalian Protein Extraction Reagent [Product #78501, Pierce, Rockford, Ill., USA]+10 mM EDTA+Protease inhibitor cocktail [Sigma-Aldrich product #P8340]+phosphatase inhibitor cocktail [Sigma-Aldrich products #P2850+#P5726]). […]

Assay [2] deals with T2, IGF-1R (Homo sapiens, UniProt P08069, M1123C/Y1125N).
T2 construct: made in house; host or cells: baculovirus; virus made in Sf21, protein expressed in H5 insect cells
T2 sequence (P08069 with tags, fused parts or gaps M1123C/Y1125N): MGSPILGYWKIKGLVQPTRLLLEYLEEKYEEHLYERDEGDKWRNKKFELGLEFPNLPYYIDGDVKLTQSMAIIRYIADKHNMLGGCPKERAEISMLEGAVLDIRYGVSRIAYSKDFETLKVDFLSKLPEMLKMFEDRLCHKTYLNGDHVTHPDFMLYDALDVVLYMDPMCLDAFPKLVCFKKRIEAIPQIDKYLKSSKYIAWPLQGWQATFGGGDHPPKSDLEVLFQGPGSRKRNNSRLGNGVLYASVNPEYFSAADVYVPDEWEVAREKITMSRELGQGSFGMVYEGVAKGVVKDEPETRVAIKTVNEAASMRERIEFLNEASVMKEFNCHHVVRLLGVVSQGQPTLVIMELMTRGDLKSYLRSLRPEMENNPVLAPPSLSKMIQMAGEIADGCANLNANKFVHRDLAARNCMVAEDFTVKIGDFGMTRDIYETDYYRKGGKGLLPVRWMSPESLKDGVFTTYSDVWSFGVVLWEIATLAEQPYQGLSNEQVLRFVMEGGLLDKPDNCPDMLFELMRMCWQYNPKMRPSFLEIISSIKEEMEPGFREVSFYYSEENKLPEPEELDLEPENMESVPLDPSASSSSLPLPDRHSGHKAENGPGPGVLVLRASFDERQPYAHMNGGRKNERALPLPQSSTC
Put plainly: Inhibition assay for IGF-1R kinase activity (Scintillation Proximity Assay). The following applies: read-out: IGF1R IC50 (μM) Biochemical assay. The protocol:
Human cDNA was used as template for amplification by polymerase chain reaction (PCR) of the whole cytoplasmic portion of IGF-1R (amino acid residues 960-1367), which includes the entire kinase domain. PCR was conducted using the forward primer sequence 5′-[…]-3′ (SEQ ID NO: 1) and the reverse primer sequence 5′-[…]-3′ (SEQ ID NO: 2). In order to facilitate subsequent cloning steps, both primers comprise a BamHI restriction endonuclease site sequence. The PCR product was cloned into a transfer vector for the baculovirus expression system, pVL1393 (Pharmingen), modified to include the sequence encoding the Glutathione S-transferase (GST) fusion protein and a PreScission cleavage site upstream of the inserted gene of interest. The GST-IGF-1R coding region corresponds to nucleic acid residues of 4168-6084. The final protein encoded by the open reading frame corresponds to a fusion protein of 639 amino acids, shown in SEQ ID NO: 3 (FIG. 1). […]
The inhibitory activity of putative kinase inhibitors and the potency of selected compounds was determined using a Scintillation Proximity Assay (SPA) in 96 well microtiter plate format. […] When a radioactively labeled phosphate moiety is transferred by the kinase to the biotinylated peptide, this stimulates light emission by the bead, which is measured in a scintillation counter. […]

Assay [3] relates to IGF-1 induced S6 ribosomal protein phosphorylation. Kind of assay: Growth factor induced S6 ribosomal protein phosphorylation in primary human fibroblasts (NHDF). It is filed as cell-based. Particulars: normal human dermal fibroblasts (NHDF), stimulated with 10 nM IGF-1; read-out: Inhibition of IGF1R-induced S6 phosphorytation IC50. The procedure:
Growth Factor Induced S6 Ribosomal Protein Phosphorylation in Primary Human Fibroblasts. Phosphorylation of S6 ribosomal protein in response to growth factor stimulation of normal human dermal fibroblasts (NHDF) was used to assess compound potency in inhibiting IGF-1 induced signal transduction in cells, and selectivity towards EGF and PDGF stimulus. NHDF cells obtained from PromoCell (Heidelberg, Germany), were maintained at 37° C. in a humidified atmosphere with 5% CO2 in complete Fibroblast Growth Medium (PromoCell). For assay, NHDF were seeded in 384-well tissue culture plates (clear- and flat-bottomed black plates; Matrix Technologies Inc., Hudson, N.H., USA) at a density of 5000 cells/well in serum-free medium containing 0.1% bovine serum albumin (BSA) and incubated for 5 days. […] Fluorescence images in the DAPI and Cy5™ channels were automatically acquired, stored and analysed using a Cellomics ArrayScan™ IV instrument (Cellomics, Pittsburgh, USA); the Cellomics Cytotoxicity Algorithm was used to quantify cytoplasmic fluorescence associated with phospho-S6 (Cy5™ signal parameter: “Mean Lyso Mass-pH”) for each cell in 10 fields/well, and eventually expressed as a mean population value. […]

Where a name gives a salt, the structure may show the parent alone.

T1 sequence (P08069 31-1367): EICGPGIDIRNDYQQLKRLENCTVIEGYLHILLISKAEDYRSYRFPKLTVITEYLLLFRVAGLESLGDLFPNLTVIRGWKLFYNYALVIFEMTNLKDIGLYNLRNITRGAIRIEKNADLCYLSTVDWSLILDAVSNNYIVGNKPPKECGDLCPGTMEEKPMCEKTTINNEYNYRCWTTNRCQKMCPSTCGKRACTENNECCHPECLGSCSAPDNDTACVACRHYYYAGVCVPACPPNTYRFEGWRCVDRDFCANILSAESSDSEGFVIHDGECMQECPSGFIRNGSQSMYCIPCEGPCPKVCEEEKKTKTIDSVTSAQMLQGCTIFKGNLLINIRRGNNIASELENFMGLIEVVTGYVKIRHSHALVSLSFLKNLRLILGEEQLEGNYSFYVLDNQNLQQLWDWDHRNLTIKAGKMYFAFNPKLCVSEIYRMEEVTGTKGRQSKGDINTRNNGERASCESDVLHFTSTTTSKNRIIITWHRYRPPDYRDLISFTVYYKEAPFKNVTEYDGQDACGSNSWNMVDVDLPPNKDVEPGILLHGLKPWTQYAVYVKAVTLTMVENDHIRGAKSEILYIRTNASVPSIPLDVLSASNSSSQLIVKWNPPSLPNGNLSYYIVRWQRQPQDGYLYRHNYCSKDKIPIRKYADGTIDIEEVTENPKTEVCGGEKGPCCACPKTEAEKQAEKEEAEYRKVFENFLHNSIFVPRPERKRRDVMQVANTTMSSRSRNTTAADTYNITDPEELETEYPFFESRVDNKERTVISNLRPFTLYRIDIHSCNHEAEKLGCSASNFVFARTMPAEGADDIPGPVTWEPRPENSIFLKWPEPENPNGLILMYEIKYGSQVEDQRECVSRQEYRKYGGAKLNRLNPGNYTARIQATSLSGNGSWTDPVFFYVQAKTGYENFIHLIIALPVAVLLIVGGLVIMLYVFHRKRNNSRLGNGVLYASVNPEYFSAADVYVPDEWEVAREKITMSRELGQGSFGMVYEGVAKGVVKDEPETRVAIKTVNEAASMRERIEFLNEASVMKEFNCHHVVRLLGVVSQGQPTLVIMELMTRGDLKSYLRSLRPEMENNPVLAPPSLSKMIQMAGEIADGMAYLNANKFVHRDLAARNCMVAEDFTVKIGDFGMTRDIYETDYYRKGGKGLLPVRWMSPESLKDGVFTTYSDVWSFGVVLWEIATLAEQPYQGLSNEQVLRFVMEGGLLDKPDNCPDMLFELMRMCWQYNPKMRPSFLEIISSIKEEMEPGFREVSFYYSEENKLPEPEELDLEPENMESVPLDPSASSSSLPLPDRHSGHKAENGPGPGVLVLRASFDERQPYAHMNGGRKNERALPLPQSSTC

On to `CN1CCN(c2ccc(C(=O)Nc3n[nH]c4c3CN(S(=O)(=O)c3cc(F)cc(F)c3)C4(C)C)c(F)c2)CC1` [Example 49, N-[5-(3,5-Difluoro-benzenesulfonyl)-6,6-dimethyl-1,4,5,6-tetrahydro-pyrrolo[3,4-c]pyrazol-3-yl]-2-fluoro-4-(4-methyl-piperazin-1-yl)-benzamide], for which the “inhibition of IGF1R auto-phosphorylation” value in assay [1] was “inhibition of IGF1-induced IGF1R auto-phosphorylation”.
Consider `CN1CCN(c2ccc(C(=O)Nc3n[nH]c4c3CN(S(=O)(=O)c3cc(F)cc(F)c3)C4(C)C)cc2)CC1` [Example 43, N-[5-(3,5-difluoro-benzenesulfonyl)-6,6-dimethyl-1,4,5,6-tetrahydro-pyrrolo[3,4-c]pyrazol-3-yl]-4-(4-methyl-piperazin-1-yl)-benzamide], for which, in assay [1], the “inhibition of IGF1R auto-phosphorylation” value is “inhibition of IGF1-induced IGF1R auto-phosphorylation”.
With `CCOC(=O)n1nc(NC(=O)c2ccc(N3CCN(C)CC3)c(N(C)CCOC)c2)c2c1CNC2` [Example 24, 3-[3-[(2-Methoxy-ethyl)-methyl-amino]-4-(4-methyl-piperazin-1-yl)-benzoylamino]-5,6-dihydro-4H-pyrrolo[3,4-c]pyrazole-1-carboxylic acid ethyl ester hydrochloride], the IC50 was 0.34 µM in assay [2] and 3050 nM in assay [3].
